Laboratory results reported in PMC5218480 (PLoS ONE, 2017).

Test system: MV-4-11 cells
Assay: Gene expression microarray analysis (Affymetrix PrimeView) and GSEA
Assay type: cell-based, human
Parameters: RFU PODN (11730768_x_at) / Fold change /veh PODN (11730768_x_at) / RFU LINC00158 (11744669_a_at) / Fold change /veh LINC00158 (11744669_a_at) / RFU DUSP10 (11751237_a_at) / Fold change /veh DUSP10 (11751237_a_at) / RFU ID3 (11757404_x_at) / Fold change /veh ID3 (11757404_x_at) / RFU PLEKHG5 (11737974_s_at) / Fold change /veh PLEKHG5 (11737974_s_at) / RFU LRRC4B (11730491_at) / Fold change /veh LRRC4B (11730491_at) / RFU GIMAP4 (11747438_a_at) / Fold change /veh GIMAP4 (11747438_a_at) / RFU KRT8 (11758183_x_at) / Fold change /veh KRT8 (11758183_x_at) / RFU CNN1 (11734310_a_at) / Fold change /veh CNN1 (11734310_a_at) / RFU VPS37D (11726825_at) / Fold change /veh VPS37D (11726825_at) / RFU C10orf10 (11716522_x_at) / Fold change /veh C10orf10 (11716522_x_at) / RFU KIR2DL2 /// KIR2DL4 /// KIR2DL5A /// KIR2DL5B /// KIR2DS1 /// KIR2DS2 /// KIR2DS3 /// KIR2DS4 /// KIR3DL3 /// KIR3DL3 /// KIR3DS1 (11738374_at) / Fold change /veh KIR2DL2 /// KIR2DL4 /// KIR2DL5A /// KIR2DL5B /// KIR2DS1 /// KIR2DS2 /// KIR2DS3 /// KIR2DS4 /// KIR3DL3 /// KIR3DL3 /// KIR3DS1 (11738374_at) / RFU C1QL1 (11718748_at) / Fold change /veh C1QL1 (11718748_at) / RFU TMPRSS4 (11747572_a_at) / Fold change /veh TMPRSS4 (11747572_a_at) / RFU HAMP (11756126_x_at) / Fold change /veh HAMP (11756126_x_at) / RFU RNFT2 (11725882_a_at) / Fold change /veh RNFT2 (11725882_a_at) / RFU NR4A2 (11747474_a_at) / Fold change /veh NR4A2 (11747474_a_at) / RFU ABCC12 (11746883_a_at) / Fold change /veh ABCC12 (11746883_a_at) / RFU TMEM136 (11760407_x_at) / Fold change /veh TMEM136 (11760407_x_at) / RFU CLDN22 /// WWC2 (11732394_at) / Fold change /veh CLDN22 /// WWC2 (11732394_at) / RFU HLA-DPB1 (11760878_x_at) / Fold change /veh HLA-DPB1 (11760878_x_at) / RFU SPINT1 (11716480_a_at) / Fold change /veh SPINT1 (11716480_a_at) / RFU GAP43 (11754022_s_at) / Fold change /veh GAP43 (11754022_s_at) / RFU A4GNT (11735810_at) / Fold change /veh A4GNT (11735810_at) / RFU PRB3 (11715151_x_at) / Fold change /veh PRB3 (11715151_x_at) / RFU TUBB4B (11761932_at) / Fold change /veh TUBB4B (11761932_at) / RFU CAPN14 (11732068_a_at) / Fold change /veh CAPN14 (11732068_a_at) / RFU TMCC2 (11721928_a_at) / Fold change /veh TMCC2 (11721928_a_at) / RFU IRGQ (11745062_a_at) / Fold change /veh IRGQ (11745062_a_at) / RFU FAM174B (11720279_a_at) / Fold change /veh FAM174B (11720279_a_at) / RFU TMPRSS4 (11748680_a_at) / Fold change /veh TMPRSS4 (11748680_a_at) / RFU FAM212B (11763350_a_at) / Fold change /veh FAM212B (11763350_a_at) / RFU PLEKHG5 (11743358_a_at) / Fold change /veh PLEKHG5 (11743358_a_at) / RFU ZSCAN30 (11745921_a_at) / Fold change /veh ZSCAN30 (11745921_a_at) / RFU CMKLR1 (11741424_a_at) / Fold change /veh CMKLR1 (11741424_a_at) / RFU LOC101060620 /// MAPK8IP1 (11723275_at) / Fold change /veh LOC101060620 /// MAPK8IP1 (11723275_at) / RFU SPTSSB (11747773_x_at) / Fold change /veh SPTSSB (11747773_x_at) / RFU PRSS12 (11739890_at) / Fold change /veh PRSS12 (11739890_at) / RFU BIN1 (11741810_x_at) / Fold change /veh BIN1 (11741810_x_at) / RFU WNT11 (11732464_a_at) / Fold change /veh WNT11 (11732464_a_at) / RFU C10orf10 (11716521_a_at) / Fold change /veh C10orf10 (11716521_a_at) / RFU C5orf56 (11738089_at) / Fold change /veh C5orf56 (11738089_at) / RFU CYB561 (11721691_x_at) / Fold change /veh CYB561 (11721691_x_at) / RFU ANKRD19P (11752326_a_at) / Fold change /veh ANKRD19P (11752326_a_at) / RFU OR2T12 /// OR2T33 /// OR2T8 (11738714_s_at) / Fold change /veh OR2T12 /// OR2T33 /// OR2T8 (11738714_s_at) / RFU VCAN (11748164_a_at) / Fold change /veh VCAN (11748164_a_at) / RFU JSRP1 (11732532_at) / Fold change /veh JSRP1 (11732532_at) / RFU KRTAP10-11 (11738290_x_at) / Fold change /veh KRTAP10-11 (11738290_x_at) / RFU MYO3A (11730013_a_at) / Fold change /veh MYO3A (11730013_a_at) / RFU EBF3 (11725865_a_at) / Fold change /veh EBF3 (11725865_a_at) / RFU CAMK2N1 (11719241_x_at) / Fold change /veh CAMK2N1 (11719241_x_at) / RFU C5orf56 (11738088_a_at) / Fold change /veh C5orf56 (11738088_a_at) / RFU OLFML3 (11715873_a_at) / Fold change /veh OLFML3 (11715873_a_at) / RFU LOC100653217 /// NTM (11731650_a_at) / Fold change /veh LOC100653217 /// NTM (11731650_a_at) / RFU MAPK11 (11762145_a_at) / Fold change /veh MAPK11 (11762145_a_at) / RFU FIZ1 (11724087_x_at) / Fold change /veh FIZ1 (11724087_x_at) / RFU OASL (11726364_x_at) / Fold change /veh OASL (11726364_x_at) / RFU SOX15 (11748057_x_at) / Fold change /veh SOX15 (11748057_x_at) / RFU CD79A (11719716_a_at) / Fold change /veh CD79A (11719716_a_at) / RFU HIST1H1D (11736915_at) / Fold change /veh HIST1H1D (11736915_at) / RFU CASKIN2 (11723855_a_at) / Fold change /veh CASKIN2 (11723855_a_at) / RFU LOC730098 (11760151_x_at) / Fold change /veh LOC730098 (11760151_x_at) / RFU OR4N2 (11742367_at) / Fold change /veh OR4N2 (11742367_at) / RFU PRRT2 (11749266_a_at) / Fold change /veh PRRT2 (11749266_a_at) / RFU SNX32 (11753110_a_at) / Fold change /veh SNX32 (11753110_a_at) / RFU CDHR5 (11726645_a_at) / Fold change /veh CDHR5 (11726645_a_at) / RFU RCAN1 (11760418_a_at) / Fold change /veh RCAN1 (11760418_a_at) / RFU FAM167A (11723789_a_at) / Fold change /veh FAM167A (11723789_a_at) / RFU FAM26E (11764081_at) / Fold change /veh FAM26E (11764081_at) / RFU ISYNA1 (11749810_s_at) / Fold change /veh ISYNA1 (11749810_s_at) / RFU ACY1 (11761880_at) / Fold change /veh ACY1 (11761880_at) / RFU 11764098_at / Fold change /veh 11764098_at / RFU SAMD14 (11745864_x_at) / Fold change /veh SAMD14 (11745864_x_at) / RFU NPB (11741838_a_at) / Fold change /veh NPB (11741838_a_at) / RFU TMPRSS6 (11731388_a_at) / Fold change /veh TMPRSS6 (11731388_a_at) / RFU KRTAP10-2 (11738614_at) / Fold change /veh KRTAP10-2 (11738614_at) / RFU ARHGAP8 /// PRR5-ARHGAP8 (11727945_x_at) / Fold change /veh ARHGAP8 /// PRR5-ARHGAP8 (11727945_x_at) / RFU KRTAP5-7 /// NADSYN1 (11734609_at) / Fold change /veh KRTAP5-7 /// NADSYN1 (11734609_at) / RFU RASL12 (11751679_a_at) / Fold change /veh RASL12 (11751679_a_at) / RFU CDKN2B (11736163_a_at) / Fold change /veh CDKN2B (11736163_a_at) / RFU PRF1 (11729649_at) / Fold change /veh PRF1 (11729649_at) / RFU, ZNF638 /// ZNF638-IT1 / Fold change vs veh, ZNF638 /// ZNF638-IT1 / RFU, PANK3 / Fold change vs veh, PANK3 / RFU, SH3YL1 / Fold change vs veh, SH3YL1 / RFU, ZEB2 / Fold change vs veh, ZEB2 / RFU, NRIP1 / Fold change vs veh, NRIP1 / RFU, PTTG1IP / Fold change vs veh, PTTG1IP / RFU, CAPN2 / Fold change vs veh, CAPN2 / RFU, MED14 / Fold change vs veh, MED14 / RFU, SNORA58 / Fold change vs veh, SNORA58 / RFU, C1orf63 / Fold change vs veh, C1orf63 / RFU, LRRFIP1 / Fold change vs veh, LRRFIP1 / RFU, NDUFAF7 / Fold change vs veh, NDUFAF7 / RFU, SLC12A2 / Fold change vs veh, SLC12A2 / RFU, IBTK / Fold change vs veh, IBTK / RFU, ESF1 / Fold change vs veh, ESF1 / Fold change vs veh, TMEM50B / RFU, TAOK1 / Fold change vs veh, TAOK1 / RFU, ACBD3 / Fold change vs veh, ACBD3 / RFU, TMA16 / Fold change vs veh, TMA16 / RFU, RWDD3 / Fold change vs veh, RWDD3 / RFU, BCAT1 / Fold change vs veh, BCAT1 / RFU, EDEM3 / Fold change vs veh, EDEM3 / RFU, TMEM33 / Fold change vs veh, TMEM33 / RFU, WDR75 / Fold change vs veh, WDR75 / RFU, AHCTF1 / Fold change vs veh, AHCTF1 / RFU, TFRC / Fold change vs veh, TFRC / RFU, ZDHHC17 / Fold change vs veh, ZDHHC17 / RFU, NOM1 / Fold change vs veh, NOM1 / RFU, ARL8B / Fold change vs veh, ARL8B / RFU, ZBTB11 / Fold change vs veh, ZBTB11 / RFU, TAMM41 / Fold change vs veh, TAMM41 / RFU, KIAA1704 /// LOC100996395 / Fold change vs veh, KIAA1704 /// LOC100996395 / RFU, ING1 / Fold change vs veh, ING1 / RFU, TRMT61B / Fold change vs veh, TRMT61B / RFU, FUBP3 / Fold change vs veh, FUBP3 / RFU, TP53 / Fold change vs veh, TP53 / RFU, TNKS2 / Fold change vs veh, TNKS2 / RFU, ZFP14 / Fold change vs veh, ZFP14 / RFU, ACTR2 / Fold change vs veh, ACTR2 / RFU, PPP3R1 / Fold change vs veh, PPP3R1 / RFU, PIK3R1 / Fold change vs veh, PIK3R1 / RFU, HNRNPA1 / Fold change vs veh, HNRNPA1 / RFU, RNF170 / Fold change vs veh, RNF170 / RFU, ZNF28 / Fold change vs veh, ZNF28 / RFU, RNGTT / Fold change vs veh, RNGTT / RFU, OGT / Fold change vs veh, OGT / RFU, BRD1 / Fold change vs veh, BRD1 / RFU, MARS / Fold change vs veh, MARS / RFU, ZNF655 / Fold change vs veh, ZNF655 / RFU, FAHD1 / Fold change vs veh, FAHD1 / RFU, BDP1 / Fold change vs veh, BDP1 / RFU, LRRCC1 / Fold change vs veh, LRRCC1 / RFU, ARID1A / Fold change vs veh, ARID1A / RFU, ZNF146 / Fold change vs veh, ZNF146 / RFU, ZNF330 / Fold change vs veh, ZNF330 / RFU, GPN3 / Fold change vs veh, GPN3 / RFU, C9orf123 / Fold change vs veh, C9orf123 / RFU, N4BP2L2 / Fold change vs veh, N4BP2L2 / RFU, ARFIP1 / Fold change vs veh, ARFIP1 / RFU, FAM179B / Fold change vs veh, FAM179B / RFU, BCL10 / Fold change vs veh, BCL10 / RFU, UHRF1BP1L / Fold change vs veh, UHRF1BP1L / RFU, BET1 / Fold change vs veh, BET1 / RFU, CNOT2 / Fold change vs veh, CNOT2 / RFU, ZNF268 / Fold change vs veh, ZNF268 / Fold change vs veh, ZNF507 / RFU, DGCR2 / Fold change vs veh, DGCR2 / RFU, WDSUB1 / Fold change vs veh, WDSUB1 / Fold change vs veh, HSP90B1 /// MIR3652 / RFU, ADSS / Fold change vs veh, ADSS / RFU, GK / Fold change vs veh, GK / RFU, ZNF148 / Fold change vs veh, ZNF148 / RFU, TAF9 / Fold change vs veh, TAF9 / RFU, SLC1A5 / Fold change vs veh, SLC1A5 / RFU, SLMO2 / Fold change vs veh, SLMO2 / RFU, ABCC4 / Fold change vs veh, ABCC4 / RFU, LOC101060439 /// RAP1B / Fold change vs veh, LOC101060439 /// RAP1B / RFU, RFX7 / Fold change vs veh, RFX7 / RFU, GTPBP10 / Fold change vs veh, GTPBP10 / RFU, CNEP1R1 / Fold change vs veh, CNEP1R1 / RFU, BIVM-ERCC5 /// ERCC5 / Fold change vs veh, BIVM-ERCC5 /// ERCC5 / RFU, ILF3 / Fold change vs veh, ILF3 / RFU 11762660_at / Fold change /veh 11762660_at / RFU VCAN (11757783_s_at) / Fold change /veh VCAN (11757783_s_at) / RFU DDX43 (11728927_at) / Fold change /veh DDX43 (11728927_at) / RFU KRT8 (11758188_x_at) / Fold change /veh KRT8 (11758188_x_at) / RFU NKD1 (11759106_at) / Fold change /veh NKD1 (11759106_at) / RFU SRD5A1 (11742802_a_at) / Fold change /veh SRD5A1 (11742802_a_at) / RFU TPSAB1 /// TPSB2 (11721975_s_at) / Fold change /veh TPSAB1 /// TPSB2 (11721975_s_at) / RFU GSTM3 (11746129_a_at) / Fold change /veh GSTM3 (11746129_a_at) / RFU IL23R (11737362_x_at) / Fold change /veh IL23R (11737362_x_at) / RFU TMEM51 (11727254_a_at) / Fold change /veh TMEM51 (11727254_a_at) / RFU PIWIL2 (11732686_x_at) / Fold change /veh PIWIL2 (11732686_x_at) / RFU ORM1 (11744905_x_at) / Fold change /veh ORM1 (11744905_x_at) / RFU CCDC152 (11743942_at) / Fold change /veh CCDC152 (11743942_at) / RFU ECM1 (11717891_a_at) / Fold change /veh ECM1 (11717891_a_at) / RFU IL23R (11748794_a_at) / Fold change /veh IL23R (11748794_a_at) / RFU TNFAIP8L3 (11732012_x_at) / Fold change /veh TNFAIP8L3 (11732012_x_at) / RFU MBOAT4 (11741988_at) / Fold change /veh MBOAT4 (11741988_at) / RFU 11764193_at / Fold change /veh 11764193_at / RFU TMEM53 (11763286_at) / Fold change /veh TMEM53 (11763286_at) / RFU MAGEB2 (11727129_at) / Fold change /veh MAGEB2 (11727129_at) / RFU TMEM200A (11744735_a_at) / Fold change /veh TMEM200A (11744735_a_at) / RFU CCDC152 (11751479_a_at) / Fold change /veh CCDC152 (11751479_a_at) / RFU FAM211A (11726209_a_at) / Fold change /veh FAM211A (11726209_a_at) / RFU RGS16 (11746705_a_at) / Fold change /veh RGS16 (11746705_a_at) / RFU VCAN (11755009_s_at) / Fold change /veh VCAN (11755009_s_at) / RFU RHOB (11743442_s_at) / Fold change /veh RHOB (11743442_s_at) / RFU RGS16 (11720943_a_at) / Fold change /veh RGS16 (11720943_a_at) / RFU RGS16 (11720944_at) / Fold change /veh RGS16 (11720944_at) / RFU, VPS4B / Fold change vs veh, VPS4B / RFU, CREB1 / Fold change vs veh, CREB1 / RFU, DNAJC13 / Fold change vs veh, DNAJC13 / RFU, GNAQ / Fold change vs veh, GNAQ / RFU, CDK5R1 / Fold change vs veh, CDK5R1 / RFU, ZRANB3 / Fold change vs veh, ZRANB3 / RFU, CUL4A / Fold change vs veh, CUL4A / RFU, CCNY / Fold change vs veh, CCNY / RFU, UFL1 / Fold change vs veh, UFL1 / RFU, COG3 / Fold change vs veh, COG3 / RFU, DIAPH2 / Fold change vs veh, DIAPH2 / RFU, SKA2 / Fold change vs veh, SKA2 / RFU, AFF3 / Fold change vs veh, AFF3 / RFU, LMF1 / Fold change vs veh, LMF1 / RFU, IPO11 / Fold change vs veh, IPO11 / RFU, DFFB / Fold change vs veh, DFFB / RFU, FOXP1 / Fold change vs veh, FOXP1 / RFU, CARD8 / Fold change vs veh, CARD8 / RFU, STRN3 / Fold change vs veh, STRN3 / RFU, ADK / Fold change vs veh, ADK / RFU, RASSF2 / Fold change vs veh, RASSF2 / RFU, WIPF1 / Fold change vs veh, WIPF1 / RFU, LARP1B / Fold change vs veh, LARP1B / RFU, RASA1 / Fold change vs veh, RASA1 / RFU, RB1 / Fold change vs veh, RB1 / RFU, PPFIA1 / Fold change vs veh, PPFIA1 / RFU, MAT2A / Fold change vs veh, MAT2A / RFU, CCT5 / Fold change vs veh, CCT5 / RFU, WDR92 / Fold change vs veh, WDR92 / RFU, CUX1 / Fold change vs veh, CUX1 / RFU, TTC7A / Fold change vs veh, TTC7A / RFU, TMEM135 / Fold change vs veh, TMEM135 / RFU, DEPTOR / Fold change vs veh, DEPTOR / RFU, CPM / Fold change vs veh, CPM / RFU, DNAJB6 / Fold change vs veh, DNAJB6 / RFU, CACNA2D3 / Fold change vs veh, CACNA2D3 / RFU, DTX4 / Fold change vs veh, DTX4 / RFU, TFCP2 / Fold change vs veh, TFCP2 / RFU, GMCL1 /// GMCL1P1 / Fold change vs veh, GMCL1 /// GMCL1P1 / RFU, AEBP2 / Fold change vs veh, AEBP2 / RFU, SNHG1 /// SNORD22 /// SNORD25 /// SNORD26 /// SNORD27 /// SNORD28 /// SNORD29 /// SNORD31 / Fold change vs veh, SNHG1 /// SNORD22 /// SNORD25 /// SNORD26 /// SNORD27 /// SNORD28 /// SNORD29 /// SNORD31 / Fold change (Aza/veh), C12orf56 (ProbeSet 11735607_a_at) / Fold change (ACY-1035/veh), C12orf56 (ProbeSet 11735607_a_at) / Fold change (Aza/veh), FGFR1OP (ProbeSet 11751329_s_at) / Fold change (ACY-1035/veh), FGFR1OP (ProbeSet 11751329_s_at) / Fold change (Aza/veh), VPS36 (ProbeSet 11739960_a_at) / Fold change (ACY-1035/veh), VPS36 (ProbeSet 11739960_a_at) / RFU SYPL1 (11715823_x_at) / Fold change /veh SYPL1 (11715823_x_at) / RFU IGFBP7 (11715501_s_at) / Fold change /veh IGFBP7 (11715501_s_at) / RFU REEP3 (11722064_at) / Fold change /veh REEP3 (11722064_at) / RFU IGLL1 (11728026_x_at) / Fold change /veh IGLL1 (11728026_x_at): dose or concentration left out as unconfirmed
Details: ProbeSet 11721969_s_at; LIST B

## Nc1ccc(-c2cccs2)cc1NC(=O)c1ccc2c(c1)cc(C1CC1)n2CCN1CCOCC1 [ACY-1035]
  RFU, BDP1: 485.00 RFU
